Source: patent US9771334B2, “Triketone compound and preparation method and use thereof” (SHANDONG CYNDA CHEMICAL CO., LTD., priority 2013, dated 2017)

What was measured:
Assay type in all cases: in vivo
[1] = tested on: setaria viridis; assay: Herbicidal activity, pot culture method (primary and secondary screening test); conditions: sprayed at 3-leaf stage; for inhibition ratio, Setaria viridis: investigated 15 days later; for herbicidal activity inhibition ratio (%), Setaria viridis: primary screening, pot culture, 150 g/ha, result 15 days later
Method in brief: (§1)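 Inhibition ratio (%) was scored 15 days after post-emergence spraying of 3-leaf-stage weeds grown in pots of soil:seedling matrix (1:2). Dose was 150 g/ha from a 0.2 g/L DMF/water solution applied by spray tower. The secondary screening used the same method at a reduced dose.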

[2] = tested on: digitaria sanguinalis; assay: as above; conditions: sprayed at 3-leaf stage; for inhibition ratio, Digitaria sanguinalis: investigated 15 days later; for herbicidal activity inhibition ratio (%), Digitaria sanguinalis: primary screening, pot culture, 150 g/ha, result 15 days later
Method in brief: as §1

[3] = tested on: amaranthus retroflexus; assay: as above; conditions: sprayed at 3-leaf stage; for inhibition ratio, Amaranthus retroflexus: investigated 15 days later; for herbicidal activity inhibition ratio (%), Amaranthus retroflexus: primary screening, pot culture, 150 g/ha, result 15 days later
Method in brief: as §1

[4] = tested on: abutilon theophrasti; assay: as above; conditions: sprayed at 3-leaf stage; for inhibition ratio, Abutilon theophrasti: investigated 15 days later; for herbicidal activity inhibition ratio (%), Abutilon theophrasti: primary screening, pot culture, 150 g/ha, result 15 days later
Method in brief: as §1

[5] = tested on: echinochloa crusgalli; assay: as above; conditions: sprayed at 3-leaf stage; for inhibition ratio, Echinochloa crusgalli: investigated 15 days later; for herbicidal activity inhibition ratio (%), Echinochloa crusgalli: primary screening, pot culture, 150 g/ha, result 15 days later
Method in brief: as §1

[6] = tested on: eclipta prostrata; assay: as above; conditions: sprayed at 3-leaf stage; for inhibition ratio, Eclipta prostrata: investigated 15 days later; for herbicidal activity inhibition ratio (%), Eclipta prostrata: primary screening, pot culture, 150 g/ha, result 15 days later
Method in brief: as §1

[7] = tested on: maize; assay: Crop safety test (pot culture method); conditions: for inhibition ratio, Maize (crop safety): plants with about 4-5 leaves, investigated 15 days later
Text: (§2) This test example is for describing crop safety of the compound with a structure shown in Formula (1). Crop safety test method (pot culture method): The test targets are wheat and maize. Take flowerpots with an inner diameter of 12 cm, put composite soil (vegetable garden soil:seedling matrix=1:2, v/v) into them till ¾ of flowerpot height, directly sow the crop seeds (budding rate>85%), cover them with 0.2 cm thick soil, and keep the plants for future use when they grow to have about 4-5 leaves. Each compound is dissolved in N,N-dimethylformamide at doses of 75 g/ha or 150 g/ha and diluted with distilled water containing 0.1% tween-80 emulsifier to form 0.1 g/L (75 g/ha) solution and 0.2 g/L (150 g/ha) solution respectively. The solutions are sprayed through an automatic spray tower. After the solutions on weed leaves are dried in the air, the flowerpots are moved into a greenhouse for cultivation. The result is investigated 15 days later.

[8] = tested on: wheat; assay: Crop safety test (pot culture method); conditions: plants with about 4-5 leaves, investigated 15 days later
Text: as §2

Cn1c(=O)n(-c2ccccc2Cl)c(=O)c2cc(C(=O)C3=C(O)CCCC3=O)ccc21 [Compound 5]
inhibition ratio, Setaria viridis ([1]; dose 37.5 g/ha): 60%
inhibition ratio, Setaria viridis ([1]; dose 75 g/ha): 90%
herbicidal activity inhibition ratio (%), Setaria viridis [1]: 100%
inhibition ratio, Digitaria sanguinalis ([2]; dose 37.5 g/ha): 40%
inhibition ratio, Digitaria sanguinalis ([2]; dose 75 g/ha): 90%
herbicidal activity inhibition ratio (%), Digitaria sanguinalis [2]: 100%
inhibition ratio, Amaranthus retroflexus ([3]; dose 37.5 g/ha): 60%
inhibition ratio, Amaranthus retroflexus ([3]; dose 75 g/ha): 75%
herbicidal activity inhibition ratio (%), Amaranthus retroflexus [3]: 80%
inhibition ratio, Abutilon theophrasti ([4]; dose 37.5 g/ha): 60%
inhibition ratio, Abutilon theophrasti ([4]; dose 75 g/ha): 70%
herbicidal activity inhibition ratio (%), Abutilon theophrasti [4]: 85%
inhibition ratio, Echinochloa crusgalli ([5]; dose 37.5 g/ha): 60%
inhibition ratio, Echinochloa crusgalli ([5]; dose 75 g/ha): 90%
herbicidal activity inhibition ratio (%), Echinochloa crusgalli [5]: 80%
inhibition ratio, Eclipta prostrata ([6]; dose 37.5 g/ha): 30%
inhibition ratio, Eclipta prostrata ([6]; dose 75 g/ha): 40%
herbicidal activity inhibition ratio (%), Eclipta prostrata [6]: 80%
inhibition ratio, Maize (crop safety) ([7]; dose 75 g/ha): 0%
inhibition ratio, Maize (crop safety) ([7]; dose 150 g/ha): 15%
inhibition ratio, Wheat (crop safety) ([8]; dose 75 g/ha): 0%
inhibition ratio, Wheat (crop safety) ([8]; dose 150 g/ha): 0%

Cc1cccc(C)c1-n1c(=O)c2cc(C(=O)C3=C(O)CCCC3=O)ccc2n(C)c1=O [Compound 34]
inhibition ratio, Setaria viridis ([1]; dose 37.5 g/ha): 70%
inhibition ratio, Setaria viridis ([1]; dose 75 g/ha): 78%
herbicidal activity inhibition ratio (%), Setaria viridis [1]: 80%
inhibition ratio, Digitaria sanguinalis ([2]; dose 37.5 g/ha): 55%
inhibition ratio, Digitaria sanguinalis ([2]; dose 75 g/ha): 75%
herbicidal activity inhibition ratio (%), Digitaria sanguinalis [2]: 83%
inhibition ratio, Amaranthus retroflexus ([3]; dose 37.5 g/ha): 100%
inhibition ratio, Amaranthus retroflexus ([3]; dose 75 g/ha): 100%
herbicidal activity inhibition ratio (%), Amaranthus retroflexus [3]: 100%
inhibition ratio, Abutilon theophrasti ([4]; dose 37.5 g/ha): 30%
inhibition ratio, Abutilon theophrasti ([4]; dose 75 g/ha): 50%
herbicidal activity inhibition ratio (%), Abutilon theophrasti [4]: 90%
inhibition ratio, Echinochloa crusgalli ([5]; dose 37.5 g/ha): 65%
inhibition ratio, Echinochloa crusgalli ([5]; dose 75 g/ha): 80%
herbicidal activity inhibition ratio (%), Echinochloa crusgalli [5]: 90%
inhibition ratio, Eclipta prostrata ([6]; dose 37.5 g/ha): 30%
inhibition ratio, Eclipta prostrata ([6]; dose 75 g/ha): 50%
herbicidal activity inhibition ratio (%), Eclipta prostrata [6]: 80%
inhibition ratio, Maize (crop safety) ([7]; dose 75 g/ha): 0%
safety to maize fields (in words) ([7]; dose 150 g/ha): highly safe
inhibition ratio, Maize (crop safety) ([7]; dose 150 g/ha): 0%
inhibition ratio, Wheat (crop safety) ([8]; dose 75 g/ha): 0%
inhibition ratio, Wheat (crop safety) ([8]; dose 150 g/ha): 5%

Cn1c(=O)n(-c2cccc(Br)c2)c(=O)c2cc(C(=O)C3=C(O)CCCC3=O)ccc21 [Compound 23]
inhibition ratio, Setaria viridis ([1]; dose 37.5 g/ha): 30%
inhibition ratio, Setaria viridis ([1]; dose 75 g/ha): 50%
herbicidal activity inhibition ratio (%), Setaria viridis [1]: 45%
inhibition ratio, Digitaria sanguinalis ([2]; dose 37.5 g/ha): 20%
inhibition ratio, Digitaria sanguinalis ([2]; dose 75 g/ha): 65%
herbicidal activity inhibition ratio (%), Digitaria sanguinalis [2]: 30%
inhibition ratio, Amaranthus retroflexus ([3]; dose 37.5 g/ha): 100%
inhibition ratio, Amaranthus retroflexus ([3]; dose 75 g/ha): 100%
herbicidal activity inhibition ratio (%), Amaranthus retroflexus [3]: 95%
inhibition ratio, Abutilon theophrasti ([4]; dose 37.5 g/ha): 100%
inhibition ratio, Abutilon theophrasti ([4]; dose 75 g/ha): 100%
herbicidal activity inhibition ratio (%), Abutilon theophrasti [4]: 85%
inhibition ratio, Echinochloa crusgalli ([5]; dose 37.5 g/ha): 20%
inhibition ratio, Echinochloa crusgalli ([5]; dose 75 g/ha): 20%
herbicidal activity inhibition ratio (%), Echinochloa crusgalli [5]: 85%
inhibition ratio, Eclipta prostrata ([6]; dose 37.5 g/ha): 100%
inhibition ratio, Eclipta prostrata ([6]; dose 75 g/ha): 100%
herbicidal activity inhibition ratio (%), Eclipta prostrata [6]: 50%
inhibition ratio, Maize (crop safety) ([7]; dose 75 g/ha): 0%
safety to maize fields (in words) ([7]; dose 150 g/ha): highly safe
inhibition ratio, Maize (crop safety) ([7]; dose 150 g/ha): 0%
inhibition ratio, Wheat (crop safety) ([8]; dose 75 g/ha): 0%
inhibition ratio, Wheat (crop safety) ([8]; dose 150 g/ha): 5%

CCc1ccccc1-n1c(=O)c2cc(C(=O)C3=C(O)CCCC3=O)ccc2n(C)c1=O [Compound 47]
inhibition ratio, Setaria viridis ([1]; dose 37.5 g/ha): 88%
inhibition ratio, Setaria viridis ([1]; dose 75 g/ha): 90%
herbicidal activity inhibition ratio (%), Setaria viridis [1]: 83%
inhibition ratio, Digitaria sanguinalis ([2]; dose 37.5 g/ha): 80%
inhibition ratio, Digitaria sanguinalis ([2]; dose 75 g/ha): 85%
herbicidal activity inhibition ratio (%), Digitaria sanguinalis [2]: 95%
inhibition ratio, Amaranthus retroflexus ([3]; dose 37.5 g/ha): 90%
inhibition ratio, Amaranthus retroflexus ([3]; dose 75 g/ha): 95%
herbicidal activity inhibition ratio (%), Amaranthus retroflexus [3]: 100%
inhibition ratio, Abutilon theophrasti ([4]; dose 37.5 g/ha): 60%
inhibition ratio, Abutilon theophrasti ([4]; dose 75 g/ha): 90%
herbicidal activity inhibition ratio (%), Abutilon theophrasti [4]: 100%
inhibition ratio, Echinochloa crusgalli ([5]; dose 37.5 g/ha): 80%
inhibition ratio, Echinochloa crusgalli ([5]; dose 75 g/ha): 88%
herbicidal activity inhibition ratio (%), Echinochloa crusgalli [5]: 85%
inhibition ratio, Eclipta prostrata ([6]; dose 37.5 g/ha): 20%
inhibition ratio, Eclipta prostrata ([6]; dose 75 g/ha): 30%
herbicidal activity inhibition ratio (%), Eclipta prostrata [6]: 85%
inhibition ratio, Maize (crop safety) ([7]; dose 75 g/ha): 0%
safety to maize fields (in words) ([7]; dose 150 g/ha): highly safe
inhibition ratio, Maize (crop safety) ([7]; dose 150 g/ha): 0%
inhibition ratio, Wheat (crop safety) ([8]; dose 75 g/ha): 0%
inhibition ratio, Wheat (crop safety) ([8]; dose 150 g/ha): 0%

Cc1ccccc1-n1c(=O)c2cc(C(=O)C3=C(O)CCCC3=O)ccc2n(C)c1=O [Compound 20]
inhibition ratio, Setaria viridis ([1]; dose 37.5 g/ha): 50%
inhibition ratio, Setaria viridis ([1]; dose 75 g/ha): 70%
herbicidal activity inhibition ratio (%), Setaria viridis [1]: 100%
inhibition ratio, Digitaria sanguinalis ([2]; dose 37.5 g/ha): 40%
inhibition ratio, Digitaria sanguinalis ([2]; dose 75 g/ha): 70%
herbicidal activity inhibition ratio (%), Digitaria sanguinalis [2]: 100%
inhibition ratio, Amaranthus retroflexus ([3]; dose 37.5 g/ha): 50%
inhibition ratio, Amaranthus retroflexus ([3]; dose 75 g/ha): 60%
herbicidal activity inhibition ratio (%), Amaranthus retroflexus [3]: 100%
inhibition ratio, Abutilon theophrasti ([4]; dose 37.5 g/ha): 30%
inhibition ratio, Abutilon theophrasti ([4]; dose 75 g/ha): 85%
herbicidal activity inhibition ratio (%), Abutilon theophrasti [4]: 100%
inhibition ratio, Echinochloa crusgalli ([5]; dose 37.5 g/ha): 50%
inhibition ratio, Echinochloa crusgalli ([5]; dose 75 g/ha): 60%
herbicidal activity inhibition ratio (%), Echinochloa crusgalli [5]: 100%
inhibition ratio, Eclipta prostrata ([6]; dose 37.5 g/ha): 50%
inhibition ratio, Eclipta prostrata ([6]; dose 75 g/ha): 50%
herbicidal activity inhibition ratio (%), Eclipta prostrata [6]: 95%
inhibition ratio, Maize (crop safety) ([7]; dose 75 g/ha): 0%
inhibition ratio, Maize (crop safety) ([7]; dose 150 g/ha): 15%
inhibition ratio, Wheat (crop safety) ([8]; dose 75 g/ha): 0%
inhibition ratio, Wheat (crop safety) ([8]; dose 150 g/ha): 0%

CC(C)c1ccccc1-n1c(=O)c2cc(C(=O)C3=C(O)CCCC3=O)ccc2n(C)c1=O [Compound 65]
inhibition ratio, Setaria viridis ([1]; dose 37.5 g/ha): 80%
inhibition ratio, Setaria viridis ([1]; dose 75 g/ha): 85%
herbicidal activity inhibition ratio (%), Setaria viridis [1]: 98%
inhibition ratio, Digitaria sanguinalis ([2]; dose 37.5 g/ha): 30%
inhibition ratio, Digitaria sanguinalis ([2]; dose 75 g/ha): 40%
herbicidal activity inhibition ratio (%), Digitaria sanguinalis [2]: 100%
inhibition ratio, Amaranthus retroflexus ([3]; dose 37.5 g/ha): 50%
inhibition ratio, Amaranthus retroflexus ([3]; dose 75 g/ha): 60%
herbicidal activity inhibition ratio (%), Amaranthus retroflexus [3]: 90%
inhibition ratio, Abutilon theophrasti ([4]; dose 37.5 g/ha): 50%
inhibition ratio, Abutilon theophrasti ([4]; dose 75 g/ha): 70%
herbicidal activity inhibition ratio (%), Abutilon theophrasti [4]: 98%
inhibition ratio, Echinochloa crusgalli ([5]; dose 37.5 g/ha): 95%
inhibition ratio, Echinochloa crusgalli ([5]; dose 75 g/ha): 100%
herbicidal activity inhibition ratio (%), Echinochloa crusgalli [5]: 80%
inhibition ratio, Eclipta prostrata ([6]; dose 37.5 g/ha): 30%
inhibition ratio, Eclipta prostrata ([6]; dose 75 g/ha): 50%
herbicidal activity inhibition ratio (%), Eclipta prostrata [6]: 80%
inhibition ratio, Maize (crop safety) ([7]; dose 75 g/ha): 0%
inhibition ratio, Maize (crop safety) ([7]; dose 150 g/ha): 10%
inhibition ratio, Wheat (crop safety) ([8]; dose 75 g/ha): 0%
inhibition ratio, Wheat (crop safety) ([8]; dose 150 g/ha): 10%
